Experiments:
Test in all cases: cell viability (% survival relative to DMSO control); higher = less cytotoxic
Settings in all cases: 72 h
MV4-11 = tested on: MV4-11
Protocol: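 8x8 drug-combination matrices (0–5000 nM; rosiglitazone and lestaurtinib 0–1000 nM) were run in MV4-11 cells for 72 h with CellTiter-Glo read-out. Survival is normalised to DMSO and 10 µM bortezomib and clipped at 100%.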

BV-173 = tested on: BV-173
Protocol: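 8x8 drug-combination matrices (0–5000 nM; rosiglitazone and lestaurtinib 0–1000 nM) were run in BV-173 cells for 72 h with CellTiter-Glo read-out. Survival is normalised to DMSO and 10 µM bortezomib and clipped at 100%.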

HL-60 = tested on: HL-60
Protocol: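 8x8 drug-combination matrices (0-5000 nM; rosiglitazone and lestaurtinib 0-1000 nM) were run in HL-60 cells for 72 h with a CellTiter-Glo read-out. Survival is normalised to DMSO and 10 µM bortezomib and clipped at 100%. Bliss synergy was analysed in SynergyFinder.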

CC(C)c1onc(-c2c(Cl)cccc2Cl)c1COc1ccc(/C=C/c2cccc(C(=O)O)c2)c(Cl)c1 [GW4064] + Cn1cc(-c2ccncc2)c(-c2ccc(OCc3ccc4ccccc4n3)cc2)n1 [PF-02545920]
cell viability [%]
Settings	drug1 concentration 5 nM	drug1 concentration 10 nM	drug1 concentration 50 nM	drug1 concentration 100 nM	drug1 concentration 500 nM	drug1 concentration 1000 nM	drug1 concentration 5000 nM
BV-173, drug2 concentration 5 nM	> 100	> 100	> 100	90.6	> 100	> 100	> 100
BV-173, drug2 concentration 10 nM	> 100	95.5	95.6	> 100	> 100	> 100	98
BV-173, drug2 concentration 50 nM	> 100	88.5	> 100	> 100	> 100	80.7	74
BV-173, drug2 concentration 100 nM	> 100	> 100	> 100	> 100	> 100	> 100	97
BV-173, drug2 concentration 500 nM	97.3	93.2	96	> 100	> 100	> 100	> 100
BV-173, drug2 concentration 1000 nM	> 100	> 100	82.7	99.2	95.5	87.3	81.7
BV-173, drug2 concentration 5000 nM	90.7	90.2	79.3	96.2	92.8	78.5	> 100
HL-60, drug2 concentration 5 nM	> 100	98.6	> 100	> 100	> 100	> 100	78.8
HL-60, drug2 concentration 10 nM	> 100	> 100	> 100	> 100	97	> 100	89.8
HL-60, drug2 concentration 50 nM	> 100	> 100	> 100	> 100	> 100	68.7	> 100
HL-60, drug2 concentration 100 nM	81.7	> 100	88.4	76.3	> 100	> 100	53.4
HL-60, drug2 concentration 500 nM	> 100	65.9	> 100	> 100	> 100	> 100	> 100
HL-60, drug2 concentration 1000 nM	97.1	> 100	> 100	> 100	> 100	46.6	> 100
HL-60, drug2 concentration 5000 nM	> 100	> 100	> 100	> 100	> 100	89.8	> 100
MV4-11, drug2 concentration 5 nM	90.6	> 100	> 100	95.2	> 100	90.8	90.2
MV4-11, drug2 concentration 10 nM	> 100	> 100	91	99.5	94.5	> 100	95.5
MV4-11, drug2 concentration 50 nM	> 100	> 100	> 100	> 100	> 100	53.1	96.7
MV4-11, drug2 concentration 100 nM	97.4	> 100	> 100	96.7	> 100	> 100	89.1
MV4-11, drug2 concentration 500 nM	> 100	96.2	> 100	> 100	70.1	> 100	77.9
MV4-11, drug2 concentration 1000 nM	> 100	> 100	97.2	91.1	95.5	80.8	73.6
MV4-11, drug2 concentration 5000 nM	48.9	54	49.3	53.3	54.9	50.4	46.4

From the supplement of paper PMC8671470
